Results on four compounds are retold here after patent US5830885A, “Antiproliferative vitamin D3 hybrids” (The Johns Hopkins University, priority 1996, dated 1998).

Each structure is given as a SMILES string. Entries after “also recorded” stand apart in the source; their conditions may differ. Where two headings read alike, the source gives them in different places.

Data set [1] deals with HL-60 cells. The conditions noted are these: relative to 1,25D3; cited from earlier work.
Data set [2] concerns Human lymphoma cells U 937. The note with it: relative to calcitriol = 1; cited from earlier work.
Data set [3] concerns Human lymphoma cells U 937. The note with it: relative to calcitriol = 1; cited from earlier work. The source holds these as a separate data set.
The subject of data set [4] is Lewis rats. The note with it: relative to calcitriol = 1; cited from earlier work.
Data set [5] has as its system murine keratinocyte cells (cell line PE). As to the kind of experiment: Growth inhibition of PE keratinocytes (MTT assay). The data set is classed as cell-based. The conditions noted are these: calcitriol vs 1-hydroxymethyl derivatives. As for the experimental part:
(§1) The compounds were tested for growth inhibition of murine keratinocyte cells (cell line PE) and for the inhibition of TPA-induced ornithine decarboxylase (ODC) activity.
The PE cell line culture medium used in the tests consisted of Eagle's minimal essential medium without calcium chloride supplemented with 8% chelexed fetal calf serum and 1% antibiotic-antimycotic and the addition of CaCl2 to 0.05 mM Ca^++.
PE cells were seeded at a density of 5,000 cells/well in 50 μl medium into 96-well microtiter plates. […] The plates were fed once at 48 hours, with the re addition of the vitamin D3 analogues at this time. At 24 hour intervals following the initial treatment of the cells with compounds, 0.1 mg ([…] of a 2 mg/ml solution) of MTT was added to the plates. After 4 hours, the MTT was removed and DMSO added to dissolve the blue formazan dye. Using a microtiter plate reader, the A505 was then determined and cell number calculated from blank-subtracted absorbance values.
(In general: Formazan colour is commonly taken as a measure of viable cells.)

The subject of data set [6] is ornithine decarboxylase (ODC). As to the kind of experiment: Inhibition of TPA-induced ornithine decarboxylase (ODC) activity in PE cells. The data set is classed as cell-based, murine. The note with it: 1 μM, 15 minutes pretreatment, p<0.001. As for the experimental part: as §1
The cell line PE was derived from a papilloma induced in female SENCAR mice by a standard skin initiation/promotion protocol (Carcinogenesis, 7:949-958 (1986), the entire contents of which are hereby incorporated by reference) and was chosen for its particular sensitivity to the induction of ornithine decarboxylase (ODC) activity by the extensively characterized tumor promoter TPA. The PE cell line culture medium used in the tests consisted of Eagle's minimal essential medium without calcium chloride supplemented with 8% chelexed fetal calf serum and 1% antibiotic-antimycotic and the addition of CaCl2 to 0.05 mM Ca^++.
100 cm^2 dishes of PE cells were treated with vitamin D3 or analogues dissolved in DMSO by direct addition into the culture medium. Fifteen minutes later, the plates were treated with 100 ng/ml TPA dissolved in ethanol. […]
Cytosolic ODC activity was determined in triplicate by measuring the release of ^14 CO2 from L-[^14 C]ornithine using an Eppendorf microvessel assay as previously described (Cancer Res., 43:2555-2559 (1983), the entire contents of which are hereby incorporated by reference).

The test system of data set [7] is U 937 cancer cells. As to the kind of experiment: Induction of cell differentiation in U 937 cancer cells (Table 5). The data set is classed as cell-based, human.
The test system of data set [8] is U 937 cancer cells. The data set can be described thus: Viability of U 937 cancer cells (Table 5). It is filed as cell-based. The note with it: Homo sapiens.
Data set [9] deals with ornithine decarboxylase (ODC). The conditions noted are these: literature; cited from earlier work.
Data set [10] deals with T1, calf thymus VDR (Bos taurus, UniProt Q28037).
T1 construct: from the calf thymus VDR; from tissue; host or cells: calf thymus
T1 sequence (Q28037 1-426): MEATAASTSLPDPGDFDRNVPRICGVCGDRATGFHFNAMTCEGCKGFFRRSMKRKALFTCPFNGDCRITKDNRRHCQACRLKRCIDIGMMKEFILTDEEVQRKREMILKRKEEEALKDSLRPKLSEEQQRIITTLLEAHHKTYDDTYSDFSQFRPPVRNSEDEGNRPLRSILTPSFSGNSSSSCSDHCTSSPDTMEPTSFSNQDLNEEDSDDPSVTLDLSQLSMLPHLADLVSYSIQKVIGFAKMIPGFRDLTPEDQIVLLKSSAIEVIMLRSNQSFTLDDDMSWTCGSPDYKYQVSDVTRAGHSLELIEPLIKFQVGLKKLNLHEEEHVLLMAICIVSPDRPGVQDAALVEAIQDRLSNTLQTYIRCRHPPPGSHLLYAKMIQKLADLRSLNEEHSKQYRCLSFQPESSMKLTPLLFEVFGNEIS
As to the kind of experiment: VDR binding assay, displacement of [^3 H]-1,25(OH)2 D3 from VDR. The note with it: for Amount Bound (amount that results in 50% displacement of [^3 H]-1,25(OH)2 D3 from VDR): Table 3, calf thymus VDR. As for the experimental part: The VDR binding assay was performed according to the procedure of Reinhardt, T. A., Horst, R. L., Orf, J. W., Hollis, B. W., J. Clin. Endocrin. Metab., 58: 91-98 (1984), the entire contents of which are hereby incorporated herein by reference.

Data set [11] has as its system keratinocyte. The data set can be described thus: Dose-response effects on keratinocyte proliferation (FIGS. 3, 4, 9, 10). It is filed as cell-based. The note with it: cell numbers at 0 and 96 hours. As for the experimental part: N0 represents the number of cells at zero hours and N1 represents the number of cells at 96 hours.
The test system of data set [12] is MDA 468 cells. The data set can be described thus: Thymidine incorporation by MDA 468 human breast cancer cells. The note with it: FIGS. 6A and 6B. The data set is classed as cell-based. The source says: (§2) FIGS. 6A and 6B show a comparison of the effects of 1,25(OH)2 D3 (filled squares), YA (filled circles) and YB (filled triangles) on thymidine incorporation by human breast cancer cell lines MDA 468 and SKBr 3.

In data set [13] the test system is calcium channels. The data set can be described thus: Calcium channel opening assay. It is filed as cell-based.
The test system of data set [14] is U 937 cancer cells. The data set can be described thus: Inhibition of cell proliferation in U 937 cancer cells (Table 5). The conditions noted are these: for IC50: Homo sapiens, U 937 cells; for inhibiting cell proliferation (in words): U 937, YB vs 1,25(OH)2 D3, YA up to 10^-7 M. The data set is classed as cell-based, human.
A short description of data set [15]: Solubility in organic solvents. The data set is classed as physicochemical. The note with it: methylene chloride, chloroform, methanol; for YA/YB also EtOAc, acetone.
Data set [16] deals with cell differentiation. As to the kind of experiment: Induction of differentiation (ratings of Table 2). It is filed as cell-based. The note with it: for differentiation inducing activity: compared with calcitriol.
In data set [17] the test system is cell proliferation. The data set can be described thus: Anti-proliferative activity (summary statements). The data set is classed as cell-based. The conditions noted are these: compared with calcitriol or in general words.
Data set [18] relates to RWLeu-4 human CML cell line. As to the kind of experiment: Proliferation of RWLeu-4 human chronic myelogenous leukemic cells. It is filed as cell-based. The conditions noted are these: even at 50 nM; FIG. 5. The text has this: MCW-II5-y-A is compound YA and MCW-II5-y-B is compound YB.
Data set [19] deals with human breast cancer cell lines MDA 468 and SKBr 3. The data set can be described thus: Thymidine incorporation by human breast cancer cell lines. The data set is classed as cell-based. The conditions noted are these: human breast cancer cells; FIGS. 6A and 6B.
Excerpt: as §2
On the technique in general: Uptake of a labelled nucleoside into DNA is a usual measure of proliferation.

The test system of data set [20] is cell proliferation. As to the kind of experiment: Inhibition of proliferation (ratings of Table 2). The data set is classed as cell-based. The note with it: Table 2 rating.
Setting [21] is: at 10^-7 M, read-out: Viability.

Consider `C=C1/C(=C\C=C2/CCC[C@]3(C)[C@@H]([C@@H](C)OCCCC(O)(CC)CC)CC[C@@H]23)C[C@@H](O)C[C@@H]1O` [KH-1060], for which, in [1], the “times as effective as 1,25D3 in the induction of leukemic cell (HL-60) differentiation” value is 133 times. Further, in data set [2], the “Relative Potency, Inhibition of Proliferation” value is recorded as 31,000. The “Relative Potency, Induction of Differentiation” value in data set [3] is given as 100,000. Besides, the “Relative Potency, Calcemic Effects” value in data set [4] is recorded as 1.3.
As a reminder, the viability is the share of living cells, or the viability signal relative to a control. Consider `C=C1/C(=C\C=C2/CCC[C@]3(C)[C@@H]([C@H](C)CCCC(C)(C)O)CC[C@@H]23)C[C@@H](O)C[C@@H]1O` [Calcitriol, 1α,25-dihydroxyvitamin D3, reference compound], for which the “growth inhibition of PE cells, comparison of potency” value in data set [5] is given as “equipotent at inhibiting growth of PE cells”. Besides, the “inhibition of TPA-induced ODC activity” value in data set [6] was “significantly inhibited the effects of TPA”; in data set [6] (listed as calcitriol), “statistically significant reduction in TPA-induced ODC activity”. Further, the “inducing cell differentiation (in words)” value in data set [7] (at a concentration of 10^-8 M) was “effective in inducing cell differentiation”. The viability at 0.1 µM in [8] stood at 99%. For the same compound, in [9], the “inhibition of TPA effects on ODC induction as well as TPA-stimulated tumor promotion” value is given as “shown to inhibit TPA effects on ODC induction”.
As usually defined, the IC50 is the concentration that gives 50% inhibition. `C=C1/C(=C\C=C2/CCC[C@]3(C)[C@@H]([C@@H](C)OCCCC(O)(CC)CC)CC[C@@H]23)C[C@@H](O)C[C@@H]1CO` [YA, 22-oxa-1-(hydroxymethyl)-26-(hydroxydiethyl) vitamin D3]: in [10], the “VDR binding (in words)” value is given as “even weaker binding for VDR than YB; also recorded: low VDR binding”. Further, in data set [10], the “Amount Bound (amount that results in 50% displacement of [^3 H]-1,25(OH)2 D3 from VDR)” value amounted to 2.2 µg. In data set [11], the “effect on keratinocyte proliferation” value is listed as “not effective for inhibition of proliferation”. In addition, in [12], the “inhibition of growth (suppression of thymidine incorporation)” value is listed as “appears to have no effect”. The “Average peak shift compared to control” value stood at 1.0 ± 0.1 mV in data set [13] (0.05 nM), 10.8 ± 1.5 mV in data set [13] (0.5 nM), 16.1 ± 4.1 mV in data set [13] (5 nM) and 18.6 ± 3.3 mV in data set [13] (50 nM). In [14], the IC50 was over 0.1 µM. Further, the “inhibiting cell proliferation (in words)” value in data set [14] is given as “ineffective”. For the same compound, the “inducing cell differentiation (in words)” value in data set [7] (at 10^-7 M) is “inactive”. In [8] (setting [21]), the viability at 0.1 µM came to 99%. Further, the “solubility in organic solvents” value in data set [15] is listed as “sparingly soluble”. In addition, the differentiation inducing activity entry in data set [16] is “relatively ineffective in inducing differentiation”. The anti-proliferative activity entry in data set [17] is reported as “relatively ineffective in inducing differentiation or inhibiting proliferation”.
As to `C=C1/C(=C\C=C2/CCC[C@]3(C)[C@@H]([C@@H](C)OCCCC(O)(CC)CC)CC[C@@H]23)C[C@H](O)C[C@H]1CO` [YB, 22-oxa-1-(hydroxymethyl)-26-(hydroxydiethyl) vitamin D3], the “Amount Bound (amount that results in 50% displacement of [^3 H]-1,25(OH)2 D3 from VDR)” value in data set [10] amounted to 0.0295 µg. Moreover, in data set [10] (relative to 1,25(OH)2 D3), the “times less strongly bound to VDR than 1,25(OH)2 D3” value is recorded as “about 1300 times”. Besides, the “effect on keratinocyte proliferation” value in data set [11] was “comparable to that of calcitriol”. Moreover, in data set [18], the “anti-proliferative effect on RWLeu-4 cells” value is recorded as “comparable to or slightly greater than that of calcitriol”. For the same compound, the “inhibition of growth (suppression of thymidine incorporation)” value in [19] is given as “very comparable to calcitriol”. The “Average peak shift compared to control” value in [13] (0.05 nM) was found to be 3.6 ± 2.2 mV; in data set [13] (0.5 nM), 13.2 ± 2.8 mV; in data set [13] (5 nM) it was 16.6 ± 2.8 mV; in [13] (50 nM), 18.4 ± 2.1 mV. In data set [14], this compound had an IC50 of 0.06 µM. The “inhibiting cell proliferation (in words)” value in data set [14] is recorded as “about one third as active”. Besides, the “inducing cell differentiation (in words)” value in data set [7] (at a concentration of 10^-8 M) is “effective in inducing cell differentiation”. Also, the viability at 0.1 µM in data set [8] (setting [21]) came to 99%. Besides, the “solubility in organic solvents” value in data set [15] is “sparingly soluble”. Moreover, in data set [20], the “Inhibition of Proliferation (rating)” value was found to be 1. For the same compound, the “Induction of Differentiation (rating)” value in data set [16] (Table 2 rating) amounted to 1. Besides, the differentiation inducing activity result in data set [16] is recorded as “comparable to that of calcitriol”.
